A melting point compilation (Tetko et al.)

Row | Compound | melting point [°C]
1 | O=C1CC2(CCCc3ccccc32)C(=O)O1 (stereo unspecified) | 99 to 101
2 | C=CCNC(=S)N1CCOCC1 | 61 to 63
3 | COc1ccccc1NC(=O)Nc1cc(N)ccc1OC | 167 to 169
4 | CCOC(=O)c1sc2nc(CSc3ccccc3)nc(Cl)c2c1C | 52 to 54
5 | N#CCCCS(=O)(=O)c1ccc(C(=O)O)cc1 | 195 to 197
6 | CN1CCC(CC(=O)O)CC1 | 150 to 152
7 | NC(=O)c1cccc(N)n1 | 141 to 143
8 | COc1ccc(-n2ccnc2SCC(=O)O)cc1 | 125 to 127
9 | Cc1c(C(C)N)cnn1-c1ccc(F)cc1 (stereo unspecified) | 42 to 44
10 | Cc1nn(C(C)(C)C)c2nc(C(C)C)cc(C(=O)O)c12 | 121 to 123
11 | COC(=O)c1cc(C(=O)O)n(-c2ccccc2)n1 | 161 to 163
12 | Cc1ccc(Oc2ccc3[nH]c(C)c(C)c(=O)c3c2)cc1 | 284 to 286
13 | CC(CCNC(N)=O)c1ccccc1 (stereo unspecified) | 77 to 79
14 | CCOc1cc(C=O)cc(Br)c1OC(F)F | 94 to 96
15 | NC(=O)Cn1ncc(Cl)c(Cl)c1=O | 245 to 247
16 | ClCc1cccc(Cl)n1 | 42 to 44
17 | Nc1cc(S(=O)(=O)N2CCOCC2)ccc1N1CCOCC1 | 210 to 212
18 | Cc1cccc(C(=O)NC(CCS(C)(=O)=O)C(=O)O)c1 (stereo unspecified) | 235 to 239
19 | Cc1nn(-c2ccc(F)cc2F)c(C)c1CC(=O)O | 163 to 165
20 | O=C(O)c1ccc2c(c1)C(=O)N(C1CC1)C2=O | 220 to 222
21 | Cc1cc(N)n(C2CCS(=O)(=O)C2)n1 (stereo unspecified) | 215 to 217
22 | O=S(=O)(c1ccc(CCl)o1)N1CCCC1 | 81 to 83
23 | Nc1cccn(Cc2ccccc2)c1=O | 119 to 121
24 | COc1c(Cl)cc(C(=O)O)cc1Cl | 152 to 154
25 | CCOC(=O)c1ccc2c(c1)NC(=O)C(C)N2 (stereo unspecified) | 181 to 183

Row | Compound | melting point [°C]
26 | CCOC(=O)C1CCC(=O)NC1 (stereo unspecified) | 66 to 68
27 | Cn1nc(-c2ccccc2)nc1CC#N | 116 to 118
28 | O=S(=O)(CCN1CCNCC1)c1ccc(Br)cc1 | 99 to 101
29 | N#CCc1c[nH]c2cc(Br)ccc12 | 112 to 114
30 | Cc1c(C(=O)O)cnn1C1CCCC1 | 99 to 101
31 | FC(F)(F)CN1CCNc2ccccc21 | 62 to 64
32 | NNc1ccnc2ccccc12 | 155 to 157
33 | Nc1cc(F)c(N2CCCCC2)c(F)c1 | 70 to 72
34 | Clc1cccc2c1NCC2 | 29 to 31
35 | Nc1cc(F)c(F)cc1N | 126 to 130
36 | CC1(C)C(=O)Nc2ccccc2N1C(=O)CCl | 170 to 172
37 | COc1cc(OC)cc(-c2cc(N)on2)c1 | 116 to 118
38 | N#Cc1nnc[nH]1 | 188 to 190
39 | Cc1c(-c2ccccc2)sc(N)c1C(=O)N1CCOCC1 | 187 to 189
40 | NC(=S)Cc1nc2ccccc2s1 | 173 to 175
41 | O=C(O)Cc1csc(-c2ccc(O)cc2)n1 | 97 to 99
42 | COCC(=O)c1cccc([N+](=O)[O-])c1 | 105 to 107
43 | O=C(CCl)Nc1ccnn1C1CCCC1 | 76 to 78
44 | Nc1nonc1C(=O)O | 214 to 216
45 | Nc1cccc2c1C(=O)NC2=O | 268 to 270
46 | Fc1ccc(-c2csc3nc(Cc4ccc(Cl)cc4)nc(Cl)c23)cc1 | 148 to 150
47 | Cc1cc(C(=O)CCl)c(C)n1-c1ccc(OC(F)(F)F)cc1 | 76 to 80
48 | ClCc1nc(-c2ccoc2)no1 | 50 to 52
49 | O=C(O)CCCCN1CCOCC1 | 99 to 101
50 | O=C(O)COc1ccccc1C(F)(F)F | 151 to 153

Row | Compound | melting point [°C]
51 | Cn1cc(C(=O)O)c(-c2ccc(F)cc2F)n1 | 231 to 233
52 | CC(Cl)c1nc2cc(Cl)ccc2n1Cc1ccccc1 (stereo unspecified) | 110 to 112
53 | CC1CNc2ccccc2CN1C(=O)OC(C)(C)C (stereo unspecified) | 158 to 160
54 | CC(N)(C(=O)O)c1cc(F)ccc1F (stereo unspecified) | 301 to 303
55 | COc1ccc(CCC2CCCCN2)cc1OC (stereo unspecified) | 39 to 41
56 | Cn1ncc2c(=O)[nH]nnc21 | 152 to 154
57 | CNc1cc(C(=O)OC)ccc1[N+](=O)[O-] | 137 to 139
58 | CCN(C(C)=O)c1nc(C=O)cs1 | 121 to 123
59 | O=C(O)c1cc(S)ccc1Cl | 154 to 156
60 | CCN(CC)C(=O)c1cccc(N)c1 | 81 to 83
61 | [N-]=[N+]=Nc1ccnc(C(N)=O)c1 | 169 to 171
62 | CCOC(=O)/C(C#N)=C/Nc1cc(OC)cc(OC)c1 | 140 to 142
63 | CC1CCN(Cc2nc3sc4c(c3c(=O)[nH]2)CCC4)CC1 | 256 to 258
64 | CSc1ccc2cc(CCl)c(Cl)nc2c1 | 151 to 153
65 | CC(C)CC(N)c1nnn[nH]1 (stereo unspecified) | 272 to 274
66 | O=C(O)c1cnc(O)cc1O | 293 to 295
67 | Nc1cc(C2CC2)nn1-c1ccccc1 | 134 to 136
68 | CCCS(=O)(=O)Nc1cccc(N)c1C | 99 to 101
69 | CC(C)N(CCC#N)S(C)(=O)=O | 107 to 109
70 | O=Cc1cnc2ncccn12 | 197 to 199
71 | CCN(CC)S(=O)(=O)c1ccc(OC)c(C(=O)O)c1 | 119 to 121
72 | NC1CCN(c2cccc(Cl)c2)C1=O (stereo unspecified) | 99 to 101
73 | Cc1ccoc1-c1nnc(N)s1 | 153 to 155
74 | O=C(CSc1nnc(NCc2ccccc2)s1)NCC1CCCCC1 | 134 to 136
75 | CC(=O)c1cncc(F)c1 | 48 to 50

Row | Compound | melting point [°C]
76 | COc1ccc(S(N)(=O)=O)cc1C(=O)O | 224 to 226
77 | Oc1ncc(F)cc1I | 119 to 121
78 | NC(=O)c1ccc(F)cc1Br | 163 to 165
79 | Cc1ccc(CN)c(S(C)(=O)=O)c1 | 32 to 34
80 | O=C(O)c1ccc(CN2C(=O)c3ccccc3C2=O)cc1 | 258 to 260
81 | CC(C)c1nc(N)no1 | 39 to 41
82 | O=C(O)c1ccc(NC2=NS(=O)(=O)c3ccccc32)cc1 | 369 to 371
83 | CC(=O)c1csc(N)n1 | 165 to 177
84 | O=C(O)c1cc2c(s1)CCC2 | 199 to 201
85 | NC(=O)c1cccnc1S | 297 to 299
86 | CN1C(=O)CC(C(=O)O)C1c1ccccc1 (stereo unspecified) | 126 to 128
87 | CC(C)N1C(=O)CNCC1(C)C | 85 to 87
88 | CCS(=O)(=O)Nc1ccc(N)cc1C | 101 to 103
89 | Cc1cccc2c1CCC2=O | 94 to 96
90 | CC(NC(=O)CCl)c1ccc(F)cc1 (stereo unspecified) | 71 to 73
91 | Cc1nn(-c2ccccc2)c(Cl)c1C(=O)O | 232 to 234
92 | CS(=O)(=O)Nc1ccc(S(=O)(=O)Cl)cc1F | 164 to 166
93 | Cc1ccc(O)c(-c2nc3ccccc3[nH]2)c1 | 259 to 261
94 | O=C(O)/C=C/c1nccs1 | 182 to 184
95 | Cc1cc2ccc(Cl)cc2nc1NN | 169 to 171
96 | Nc1cccc(N2CCN(CCc3ccccc3)CC2)c1 | 96 to 98
97 | CC(C)(C)Sc1ccc(C(N)=S)cc1 | 163 to 165
98 | Nc1nc2ccc(Cl)cn2n1 | 183 to 185
99 | CC1CNCCC1NC(=O)OC(C)(C)C (stereo unspecified) | 104 to 106
100 | Nc1ccc(Cl)c(S(=O)(=O)N2CCCC2)c1 | 116 to 118

Row | Compound | melting point [°C]
101 | CSc1c(F)cc(N)cc1F | 91 to 93
102 | Cc1ccccc1-c1nnc(N)o1 | 160 to 162
103 | O=C(O)c1cn(Cc2ccccc2)nc1-c1ccccc1 | 189 to 191
104 | Cc1ccccc1-n1c(S)nc2ccccc2c1=O | 96 to 97
105 | O=C(CC(=O)NCC1CCCO1)NCC1CCCO1 (stereo unspecified) | 77 to 79
106 | Nc1cc(I)ccc1Cl | 56 to 58
107 | CCSc1ccc(C(=O)O)cc1 | 145 to 147
108 | COC(=O)c1ccc(O)c(C(C)=O)c1 | 96 to 98
109 | COC(=O)c1c[nH]c(C)n1 | 136 to 138
110 | Cn1ncnc1-c1ccc(C(=O)O)cc1 | 240 to 242
111 | Cc1ccc(C(N)c2cccc(S(C)(=O)=O)c2)cc1 (stereo unspecified) | 73 to 75
112 | O=C(O)c1csc(-c2nnc[nH]2)n1 | 299 to 301
113 | CC(C)(C)OC(=O)NC1CCCC(C(=O)O)C1 (stereo unspecified) | 126 to 128
114 | O=C(CCl)Nc1ccccc1I | 38 to 40
115 | CCN(CC)S(=O)(=O)c1ccc(-c2csc(N)n2)cc1 | 234 to 236
116 | CCNC(=O)CC(=O)O | 51 to 53
117 | O=C(O)Cc1c[nH]c2ccc(Cl)cc12 | 157 to 159
118 | COC(=O)CC1c2ccccc2CCN1S(C)(=O)=O (stereo unspecified) | 103 to 105
119 | O=C(O)C1(OCc2ccccc2)CCOCC1 | 69 to 71
120 | O=[N+]([O-])c1ccc(-c2ncc(CO)o2)cc1 | 154 to 156
121 | CSCc1cc(C(=O)O)sc1C | 135 to 137
122 | NNC(=O)c1ccc(CSc2nc3ccccc3[nH]2)cc1 | 64 to 66
123 | Cc1cc(F)cc2[nH]c(C(=O)O)cc12 | 261 to 263
124 | Cc1nc(-c2cccs2)c(CC(=O)O)s1 | 159 to 161
125 | N#Cc1ccc(COc2ccccc2F)cc1 | 68 to 70

Row | Compound | melting point [°C]
126 | Cc1cnc2c(Cl)nccc2n1 | 139 to 141
127 | CC(N)c1cccc(NC(=O)c2ccccc2)c1 (stereo unspecified) | 115 to 117
128 | COCCOc1ccc(C(=O)O)cc1OC | 149 to 151
129 | NC(=O)NCc1ccc(S(N)(=O)=O)cc1 | 175 to 177
130 | O=C1Nc2cccc(Br)c2C1=O | 229 to 231
131 | COc1ccc2cc(C=O)c(Cl)nc2c1 | 84 to 86
132 | COc1ccc(Cl)cc1/C=C/C(=O)O | 199 to 201
133 | O=C(O)CC1CCCCO1 (stereo unspecified) | 49 to 51
134 | Nc1ccc2nc(S)oc2c1 | 208 to 210
135 | Cc1ccc(NCCC(=O)O)cc1Cl | 80 to 82
136 | O=C(O)c1cc(Cl)nc2ccccc12 | 187 to 189
137 | O=C(Nc1ccc(F)cc1)N1CCC(=NO)CC1 | 183 to 185
138 | COc1nc(O)c2ccccc2n1 | 228 to 230
139 | CC(Cl)C(=O)N1CCc2ccccc21 (stereo unspecified) | 106 to 108
140 | O=S(=O)(c1ccc(S)nc1)N1CCCC1 | 179 to 181
141 | Oc1ccc(-c2nc3ccccc3[nH]2)cn1 | 238 to 242
142 | Nc1cc(F)c(Oc2ccc(F)cc2)cc1C(=O)O | 194 to 196
143 | Cn1cnc(-c2ccc(F)cc2)c1N | 148 to 150
144 | NC(=O)Nc1ccccc1Oc1ccccc1 | 182 to 184
145 | CC(C)(C)n1cc(C#N)c(N)n1 | 121 to 123
146 | O=C(O)CCOc1cc(Cl)ccc1Cl | 145 to 147
